Results taken from ChEMBL document CHEMBL1201862, “PubChem BioAssay data set” (2004).
Calls of active or inactive are those of the source.

Assays:
[1] = target: Cytochrome P450 2D6 (Homo sapiens, UniProt P10635); experiment: qHTS Assay for Inhibitors and Substrates of Cytochrome P450 2D6. [Related pubchem assays: 410 ]; format: ADME; details: read-out: Potency
[2] = target: T1, Cytochrome P450 2C9 (Homo sapiens, UniProt P11712); details: Potency
[3] = target: T1, Cytochrome P450 2C9
[4] = target: T2, Cytochrome P450 3A4 (Homo sapiens, UniProt P08684)
[5] = target: T3, Aminopeptidase N (Plasmodium falciparum FcB1/Columbia, UniProt O96935); experiment: malaria alanyl aminopeptidase activity blockers – biochemical, fluorogenic H-Leu-NHMec substrate, 1536-well (AID 1445); design: species or system Plasmodium falciparum 3D7, 3D7
T3 sequence (O96935 whole entry): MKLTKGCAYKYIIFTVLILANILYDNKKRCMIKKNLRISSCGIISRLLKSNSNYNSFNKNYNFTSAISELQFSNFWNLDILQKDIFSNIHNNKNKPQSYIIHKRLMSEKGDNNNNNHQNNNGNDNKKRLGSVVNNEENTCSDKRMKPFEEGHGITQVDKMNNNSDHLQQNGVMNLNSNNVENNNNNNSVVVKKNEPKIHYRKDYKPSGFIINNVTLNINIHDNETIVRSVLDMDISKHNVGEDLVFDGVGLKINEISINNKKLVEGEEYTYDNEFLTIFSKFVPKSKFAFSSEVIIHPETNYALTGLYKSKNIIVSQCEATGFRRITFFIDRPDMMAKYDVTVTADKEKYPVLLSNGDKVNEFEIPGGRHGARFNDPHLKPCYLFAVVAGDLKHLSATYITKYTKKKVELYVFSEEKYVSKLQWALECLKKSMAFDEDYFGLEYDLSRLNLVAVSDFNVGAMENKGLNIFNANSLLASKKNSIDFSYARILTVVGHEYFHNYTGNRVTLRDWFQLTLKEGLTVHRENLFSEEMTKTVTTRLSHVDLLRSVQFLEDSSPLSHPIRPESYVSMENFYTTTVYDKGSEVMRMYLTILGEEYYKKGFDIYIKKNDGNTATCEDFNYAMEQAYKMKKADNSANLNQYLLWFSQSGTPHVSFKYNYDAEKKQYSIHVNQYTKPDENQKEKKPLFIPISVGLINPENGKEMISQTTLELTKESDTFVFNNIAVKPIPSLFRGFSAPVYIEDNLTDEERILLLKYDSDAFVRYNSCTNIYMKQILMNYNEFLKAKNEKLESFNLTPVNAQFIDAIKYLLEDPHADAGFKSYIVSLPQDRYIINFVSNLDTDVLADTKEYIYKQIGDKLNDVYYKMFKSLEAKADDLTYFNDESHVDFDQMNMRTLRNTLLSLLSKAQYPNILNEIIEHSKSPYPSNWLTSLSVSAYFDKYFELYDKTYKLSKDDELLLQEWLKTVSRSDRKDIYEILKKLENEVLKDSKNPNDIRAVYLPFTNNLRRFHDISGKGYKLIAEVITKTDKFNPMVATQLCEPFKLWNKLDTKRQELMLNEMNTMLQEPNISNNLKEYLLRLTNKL

[6] = target: Large T antigen (Simian virus 40, UniProt P03070); format: functional, Betapolyomavirus macacae;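 note: Confirmatory-stage PubChem screen for compounds that inhibit SV40 T antigen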
[7] = target: T4, Cytochrome P450 1A2 (Homo sapiens, UniProt P05177);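 note: PubChem cytochrome P450 panel assay, CYP1A2 panel member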
T4 sequence (P05177 whole entry): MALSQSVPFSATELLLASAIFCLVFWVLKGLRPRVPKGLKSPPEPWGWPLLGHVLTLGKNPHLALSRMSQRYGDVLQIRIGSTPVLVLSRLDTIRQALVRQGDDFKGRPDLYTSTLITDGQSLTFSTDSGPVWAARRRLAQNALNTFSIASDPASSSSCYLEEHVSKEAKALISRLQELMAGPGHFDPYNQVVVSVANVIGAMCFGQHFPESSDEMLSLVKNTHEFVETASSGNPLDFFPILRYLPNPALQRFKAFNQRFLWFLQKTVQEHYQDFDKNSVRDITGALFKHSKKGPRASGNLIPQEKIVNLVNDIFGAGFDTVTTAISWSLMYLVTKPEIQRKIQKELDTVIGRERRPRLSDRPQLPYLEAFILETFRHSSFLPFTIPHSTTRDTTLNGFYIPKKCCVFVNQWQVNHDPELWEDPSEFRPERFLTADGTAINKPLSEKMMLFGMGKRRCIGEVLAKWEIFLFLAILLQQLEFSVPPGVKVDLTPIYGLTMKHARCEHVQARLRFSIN

[8] = target: Peroxisome proliferator-activated receptor gamma/Nuclear receptor coactivator 2 (Homo sapiens, UniProt P37231); format: functional;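 note: agonist potency for raising coactivator recruitment to the receptor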
[9] = target: Peroxisome proliferator-activated receptor gamma/Nuclear receptor coactivator 1 (Homo sapiens, UniProt P37231); format: functional;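 note: agonist potency as compounds enhance coactivator SRC-1 recruitment to PPARgamma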
[10] = Trypanosoma cruzi growth suppression in host cells – NIH3T3 host cells, beta-gal luminescence, confirmation (AID 2044); format: functional, cell-based;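 note: intracellular parasites grown in NIH/3T3 mouse fibroblasts as host cells; luminescent beta-galactosidase reporter signal from transgenic T. cruzi replicating inside host cells; inhibitors lower the luminescence signal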
[11] = NIH3T3 cell viability loss – ATP luminescence, mouse fibroblasts, counter-screen, dose response (AID 2010); format: functional, cell-based;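 note: cells exposed to compound for about 90 hours before reading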
[12] = target: Peroxisome proliferator-activated receptor gamma/Nuclear receptor coactivator 3 (Homo sapiens, UniProt P37231); format: functional;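 note: agonist potency for raising coactivator recruitment to the receptor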
[13] = target: T5, Hexokinase (Trypanosoma brucei, UniProt Q38C41); experiment: Confirmation assay for inhibitors of Trypanosoma brucei hexokinase 1-Analogue-first series. [Related pubchem assays (depositor defined):AID1430, AID1632, AID2516, AID2560, AID2579, AID2600, AID449725, AID492951]; format: functional
T5 sequence (Q38C41 whole entry): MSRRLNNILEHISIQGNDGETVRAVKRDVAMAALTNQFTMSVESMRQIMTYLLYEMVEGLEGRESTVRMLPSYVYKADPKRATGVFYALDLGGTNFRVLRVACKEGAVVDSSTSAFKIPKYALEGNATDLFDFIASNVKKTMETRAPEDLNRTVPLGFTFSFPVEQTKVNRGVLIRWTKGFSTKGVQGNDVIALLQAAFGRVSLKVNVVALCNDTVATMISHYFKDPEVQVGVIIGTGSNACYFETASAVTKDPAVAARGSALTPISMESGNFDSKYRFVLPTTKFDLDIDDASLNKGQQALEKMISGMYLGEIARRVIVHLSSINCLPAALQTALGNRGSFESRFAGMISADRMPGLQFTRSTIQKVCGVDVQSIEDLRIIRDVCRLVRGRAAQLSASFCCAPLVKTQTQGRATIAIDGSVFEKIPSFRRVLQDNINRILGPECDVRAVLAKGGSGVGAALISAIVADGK

[14] = target: G-protein coupled receptor 55 (Homo sapiens, UniProt Q9Y2T6); experiment: selective activators of receptor GPR55 – imaging, U2OS cells, beta-arrestin-GFP redistribution, primary screen (AID 1961); format: functional
[15] = viability of uninfected HEp-2 cells – cell-based, HTS, cytotoxicity control for RSV inhibitor project, dose response (AID 2410); format: functional; details: human respiratory syncytial virus
[16] = cells
[17] = system: Streptococcus; experiment: GAS UMAA2166 growth inhibition – luminescence, BacTiterGlo, counter-screen for streptokinase expression inhibitor project, dose response (AID 1915); format: functional, organism-based;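 note: potency for reduction of bacterial viability or growth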
[18] = fluconazole-exposed Candida albicans growth modulators – fluorescence, retest, confirmation (AID 2467); format: functional, cell-based
[19] = target: T6, Streptokinase A (Streptococcus pyogenes serotype M1, UniProt P10520); experiment: viability-normalized secreted streptokinase activity reduction – plasminogen activation absorbance, OD405, dose response (AID 1914); format: functional, Streptococcus pyogenes M1 GAS;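 note: secreted streptokinase activity via plasminogen activation per viability signal from cell pellet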
T6 sequence (P10520 whole entry): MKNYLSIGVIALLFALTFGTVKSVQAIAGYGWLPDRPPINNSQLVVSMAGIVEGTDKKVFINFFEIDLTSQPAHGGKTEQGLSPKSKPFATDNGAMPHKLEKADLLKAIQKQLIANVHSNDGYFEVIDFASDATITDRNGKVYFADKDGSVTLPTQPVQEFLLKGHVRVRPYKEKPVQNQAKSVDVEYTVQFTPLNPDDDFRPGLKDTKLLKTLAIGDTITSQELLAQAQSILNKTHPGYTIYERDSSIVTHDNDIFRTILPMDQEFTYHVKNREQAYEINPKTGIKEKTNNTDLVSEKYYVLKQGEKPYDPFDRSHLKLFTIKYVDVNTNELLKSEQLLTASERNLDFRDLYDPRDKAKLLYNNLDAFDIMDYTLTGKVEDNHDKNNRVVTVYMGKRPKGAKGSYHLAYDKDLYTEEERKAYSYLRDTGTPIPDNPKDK

[20] = NIH-3T3 fibroblast cytotoxicity, dose response, cytotoxicity control, cell-based, fluorescence, Alamar Blue, secondary assay (AID 2327); format: functional;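 note: NIH-3T3 mouse fibroblasts cultured with fluconazole at 8 µg/mL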
[21] = target: T7, Short transient receptor potential channel 4 (Mus musculus, UniProt Q9QUQ5); experiment: calcium entry via TRPC4 opening agents – cell-based, HEK293 TRPC4/mu-opioid, Fluo-4 calcium, dose response (AID 434937); format: functional
T7 sequence (Q9QUQ5 whole entry): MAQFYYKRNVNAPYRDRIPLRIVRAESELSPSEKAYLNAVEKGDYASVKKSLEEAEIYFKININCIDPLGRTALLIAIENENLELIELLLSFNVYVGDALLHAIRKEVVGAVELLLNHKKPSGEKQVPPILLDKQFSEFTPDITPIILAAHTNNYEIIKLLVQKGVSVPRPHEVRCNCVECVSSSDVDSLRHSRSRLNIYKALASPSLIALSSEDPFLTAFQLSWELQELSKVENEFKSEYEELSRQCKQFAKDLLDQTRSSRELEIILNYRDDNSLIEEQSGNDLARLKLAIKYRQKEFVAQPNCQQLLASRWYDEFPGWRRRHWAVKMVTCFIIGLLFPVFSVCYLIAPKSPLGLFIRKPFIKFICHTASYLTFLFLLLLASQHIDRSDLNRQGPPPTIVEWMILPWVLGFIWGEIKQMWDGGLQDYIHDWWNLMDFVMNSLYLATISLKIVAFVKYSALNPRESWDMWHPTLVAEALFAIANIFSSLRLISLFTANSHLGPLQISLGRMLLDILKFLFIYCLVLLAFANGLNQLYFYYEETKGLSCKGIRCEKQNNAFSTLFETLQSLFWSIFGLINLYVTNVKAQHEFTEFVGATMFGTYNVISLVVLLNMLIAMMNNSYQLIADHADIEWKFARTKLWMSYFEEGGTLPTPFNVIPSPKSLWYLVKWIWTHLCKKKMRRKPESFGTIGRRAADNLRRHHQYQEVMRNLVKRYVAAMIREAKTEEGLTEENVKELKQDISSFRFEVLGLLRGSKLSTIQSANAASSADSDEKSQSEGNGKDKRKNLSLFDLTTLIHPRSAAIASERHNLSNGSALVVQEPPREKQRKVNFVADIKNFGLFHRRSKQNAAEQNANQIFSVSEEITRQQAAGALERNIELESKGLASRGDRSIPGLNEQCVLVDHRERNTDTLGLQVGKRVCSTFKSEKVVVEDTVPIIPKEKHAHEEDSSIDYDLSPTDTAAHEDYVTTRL

[22] = system: Streptococcus sp. 'group A'; experiment: Streptococcus pyogenes SK(-)GAS viability under kanamycin – luminescence, BacTiterGlo, confirmation, counter-screen for streptokinase expression inhibitor project, dose response (AID 1900); format: functional, organism-based
[23] = mitochondrial function rescue without frataxin homolog – Friedreich's ataxia, plus single-dose screen, dose response (AID 1465); format: functional;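 note: yeast depleted of Yfh1p frataxin homolog grown on glycerol needing respiration; WST-1 tetrazolium dye reduction as measure of cellular dehydrogenase metabolic activity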
[24] = target: T2, Cytochrome P450 3A4; details: Potency

Chain of G-protein coupled receptor 55 (Q9Y2T6 whole entry): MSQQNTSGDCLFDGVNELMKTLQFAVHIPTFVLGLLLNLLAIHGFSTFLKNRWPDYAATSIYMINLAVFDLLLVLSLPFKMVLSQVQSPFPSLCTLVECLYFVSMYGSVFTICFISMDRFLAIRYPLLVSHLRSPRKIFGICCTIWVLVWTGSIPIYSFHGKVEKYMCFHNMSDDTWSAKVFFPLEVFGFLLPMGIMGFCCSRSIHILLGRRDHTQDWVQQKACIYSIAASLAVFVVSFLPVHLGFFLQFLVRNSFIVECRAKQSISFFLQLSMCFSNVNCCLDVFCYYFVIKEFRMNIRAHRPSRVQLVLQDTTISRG
T2 sequence (P08684 whole entry): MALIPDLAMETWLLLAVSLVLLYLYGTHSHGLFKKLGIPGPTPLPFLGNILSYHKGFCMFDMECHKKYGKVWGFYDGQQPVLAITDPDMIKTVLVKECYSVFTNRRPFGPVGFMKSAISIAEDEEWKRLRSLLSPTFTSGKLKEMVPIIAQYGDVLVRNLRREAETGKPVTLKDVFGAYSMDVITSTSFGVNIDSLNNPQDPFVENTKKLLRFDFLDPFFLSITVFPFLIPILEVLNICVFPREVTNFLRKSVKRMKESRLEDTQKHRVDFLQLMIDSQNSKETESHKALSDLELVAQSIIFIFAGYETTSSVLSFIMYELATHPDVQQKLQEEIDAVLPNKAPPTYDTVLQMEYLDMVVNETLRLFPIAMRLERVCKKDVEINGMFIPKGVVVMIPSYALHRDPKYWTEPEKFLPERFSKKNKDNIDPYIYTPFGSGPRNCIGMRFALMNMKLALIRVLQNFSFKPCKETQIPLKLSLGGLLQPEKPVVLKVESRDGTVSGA
T1 sequence (P11712 whole entry): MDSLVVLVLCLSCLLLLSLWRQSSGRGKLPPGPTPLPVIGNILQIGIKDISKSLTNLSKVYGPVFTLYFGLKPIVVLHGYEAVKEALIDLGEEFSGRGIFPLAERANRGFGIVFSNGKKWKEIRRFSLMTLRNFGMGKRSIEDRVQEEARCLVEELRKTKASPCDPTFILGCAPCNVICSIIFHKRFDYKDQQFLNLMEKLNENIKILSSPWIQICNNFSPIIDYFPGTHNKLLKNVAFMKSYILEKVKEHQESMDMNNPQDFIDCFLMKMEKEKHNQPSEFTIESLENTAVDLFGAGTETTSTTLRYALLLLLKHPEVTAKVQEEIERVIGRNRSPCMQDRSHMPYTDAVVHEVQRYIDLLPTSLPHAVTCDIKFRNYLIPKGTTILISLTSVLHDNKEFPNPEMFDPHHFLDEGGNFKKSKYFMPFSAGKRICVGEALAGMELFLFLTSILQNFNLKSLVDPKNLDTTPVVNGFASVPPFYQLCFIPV
Chain of Cytochrome P450 2D6 (P10635 whole entry): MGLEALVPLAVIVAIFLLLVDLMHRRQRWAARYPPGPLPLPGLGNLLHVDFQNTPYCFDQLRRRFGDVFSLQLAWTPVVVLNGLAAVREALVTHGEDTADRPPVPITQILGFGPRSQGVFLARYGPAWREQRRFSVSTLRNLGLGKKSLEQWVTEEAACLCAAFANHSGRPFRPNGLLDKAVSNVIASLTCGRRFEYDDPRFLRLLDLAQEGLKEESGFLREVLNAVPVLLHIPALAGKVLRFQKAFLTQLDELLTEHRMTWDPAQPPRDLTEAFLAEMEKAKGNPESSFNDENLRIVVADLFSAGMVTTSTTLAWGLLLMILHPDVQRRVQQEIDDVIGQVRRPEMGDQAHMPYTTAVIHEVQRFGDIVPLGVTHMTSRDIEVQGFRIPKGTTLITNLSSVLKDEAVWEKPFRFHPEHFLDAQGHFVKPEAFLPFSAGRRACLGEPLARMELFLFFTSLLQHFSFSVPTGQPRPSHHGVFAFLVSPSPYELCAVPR
Chain of Peroxisome proliferator-activated receptor gamma/Nuclear receptor coactivator 1 (P37231 whole entry): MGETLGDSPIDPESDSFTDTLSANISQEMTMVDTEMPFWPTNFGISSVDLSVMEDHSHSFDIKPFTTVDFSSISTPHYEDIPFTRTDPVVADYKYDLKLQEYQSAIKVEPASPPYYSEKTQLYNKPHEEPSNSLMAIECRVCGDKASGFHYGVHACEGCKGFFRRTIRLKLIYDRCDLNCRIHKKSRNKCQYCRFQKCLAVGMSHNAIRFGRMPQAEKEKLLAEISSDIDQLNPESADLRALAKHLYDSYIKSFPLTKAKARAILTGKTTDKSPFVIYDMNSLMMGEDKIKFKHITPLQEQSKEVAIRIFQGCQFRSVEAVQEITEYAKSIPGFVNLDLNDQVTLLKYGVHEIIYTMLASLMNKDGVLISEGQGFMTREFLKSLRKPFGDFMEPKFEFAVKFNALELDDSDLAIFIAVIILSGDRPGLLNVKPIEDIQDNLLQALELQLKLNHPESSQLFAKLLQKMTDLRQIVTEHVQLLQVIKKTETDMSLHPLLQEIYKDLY
Chain of Peroxisome proliferator-activated receptor gamma/Nuclear receptor coactivator 1 (Q15788 whole entry, further chain): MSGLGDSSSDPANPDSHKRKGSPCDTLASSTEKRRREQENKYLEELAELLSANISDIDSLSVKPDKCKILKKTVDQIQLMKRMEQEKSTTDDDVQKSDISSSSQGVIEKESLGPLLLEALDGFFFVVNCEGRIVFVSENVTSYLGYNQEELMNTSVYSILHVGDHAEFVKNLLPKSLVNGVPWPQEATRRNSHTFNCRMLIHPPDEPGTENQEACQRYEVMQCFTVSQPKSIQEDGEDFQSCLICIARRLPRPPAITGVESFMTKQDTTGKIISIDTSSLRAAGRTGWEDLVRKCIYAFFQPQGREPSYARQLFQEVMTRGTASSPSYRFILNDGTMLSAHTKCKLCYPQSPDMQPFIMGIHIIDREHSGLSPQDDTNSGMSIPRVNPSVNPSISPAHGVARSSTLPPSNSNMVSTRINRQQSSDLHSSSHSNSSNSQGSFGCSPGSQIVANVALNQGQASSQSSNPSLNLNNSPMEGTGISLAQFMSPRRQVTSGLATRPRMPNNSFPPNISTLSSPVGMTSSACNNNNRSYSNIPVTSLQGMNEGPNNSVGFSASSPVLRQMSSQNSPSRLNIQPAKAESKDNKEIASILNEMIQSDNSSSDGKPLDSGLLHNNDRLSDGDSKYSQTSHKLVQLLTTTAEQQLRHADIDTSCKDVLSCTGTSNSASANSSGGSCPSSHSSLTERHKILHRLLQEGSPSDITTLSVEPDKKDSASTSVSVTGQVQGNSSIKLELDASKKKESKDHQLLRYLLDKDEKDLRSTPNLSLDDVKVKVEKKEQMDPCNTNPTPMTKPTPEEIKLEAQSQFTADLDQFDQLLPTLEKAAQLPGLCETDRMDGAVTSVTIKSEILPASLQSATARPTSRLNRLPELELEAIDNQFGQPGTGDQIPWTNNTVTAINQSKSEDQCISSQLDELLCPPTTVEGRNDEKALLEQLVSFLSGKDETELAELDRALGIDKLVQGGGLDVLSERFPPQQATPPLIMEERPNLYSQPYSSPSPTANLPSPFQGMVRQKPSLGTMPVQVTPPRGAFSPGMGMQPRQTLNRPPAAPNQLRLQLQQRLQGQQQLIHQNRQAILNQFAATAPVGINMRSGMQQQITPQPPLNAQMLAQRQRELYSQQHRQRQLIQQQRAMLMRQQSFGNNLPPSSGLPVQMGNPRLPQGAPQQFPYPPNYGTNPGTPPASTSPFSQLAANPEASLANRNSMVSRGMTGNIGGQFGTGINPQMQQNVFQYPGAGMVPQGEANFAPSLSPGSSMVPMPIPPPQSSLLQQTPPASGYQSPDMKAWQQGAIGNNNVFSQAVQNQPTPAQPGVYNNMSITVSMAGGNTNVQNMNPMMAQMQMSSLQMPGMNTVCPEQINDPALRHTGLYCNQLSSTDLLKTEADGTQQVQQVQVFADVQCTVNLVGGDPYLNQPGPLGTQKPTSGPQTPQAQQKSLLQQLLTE
Chain of Large T antigen (P03070 whole entry): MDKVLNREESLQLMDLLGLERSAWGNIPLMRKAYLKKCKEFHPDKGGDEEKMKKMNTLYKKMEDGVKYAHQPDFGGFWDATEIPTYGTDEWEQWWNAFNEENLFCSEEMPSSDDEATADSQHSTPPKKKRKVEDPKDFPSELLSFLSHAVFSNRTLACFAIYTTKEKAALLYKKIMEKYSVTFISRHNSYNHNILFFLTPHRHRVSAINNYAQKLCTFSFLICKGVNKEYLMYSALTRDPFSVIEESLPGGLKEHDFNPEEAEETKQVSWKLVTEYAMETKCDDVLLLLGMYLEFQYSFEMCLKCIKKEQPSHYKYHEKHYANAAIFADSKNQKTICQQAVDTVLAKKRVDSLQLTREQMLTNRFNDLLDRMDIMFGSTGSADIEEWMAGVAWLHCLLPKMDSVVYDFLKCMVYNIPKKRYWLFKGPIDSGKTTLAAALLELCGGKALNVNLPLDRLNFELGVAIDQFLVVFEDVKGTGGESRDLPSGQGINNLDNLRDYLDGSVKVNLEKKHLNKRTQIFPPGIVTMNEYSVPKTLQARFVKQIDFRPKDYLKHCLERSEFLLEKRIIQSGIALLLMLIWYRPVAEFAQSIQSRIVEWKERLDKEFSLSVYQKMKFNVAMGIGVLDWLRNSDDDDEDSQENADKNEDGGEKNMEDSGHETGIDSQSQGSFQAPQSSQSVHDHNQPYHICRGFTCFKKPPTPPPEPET

C=CCC1C=CC(Oc2ccc(OC)cc2)C(COC(=O)c2ccc(Br)cc2)O1 (stereo not given)
AC50 [1]: 6.31 µM (inconclusive)
AC50 [2]: 3.98 µM (inconclusive)

CC[C@H](C)N(C)C(=O)c1cc2ccccc2c(-c2ccccc2Cl)n1
AC50 [3]: 31.6 µM (inconclusive)
AC50 [2]: 15.8 µM (inconclusive)
AC50 [4]: 20 µM (inconclusive)

CCOC(=O)c1c(N2C(=O)Nc3cc(Cl)c(Cl)cc3N2O)sc2c1CCCCC2
IC50 [5]: 81.7 µM (active)
IC50 [6]: > 100 µM (active)
AC50 [4]: 10 µM (inconclusive)
AC50 [7]: 39.8 µM (inconclusive)

COc1ccc(N2C(=O)/C(=C\NNS(=O)(=O)c3cccc([N+](=O)[O-])c3)c3ccccc3C2=O)cc1OC
EC50 [8]: > 79.4 µM (not active)
EC50 [9]: > 79.4 µM (not active)
EC50 [10]: 18.2 µM (active)
EC50 [11]: > 60 µM (not active)
EC50 [12]: > 79.4 µM (not active)

COc1ccc(C(=O)Nc2ccccc2C(=O)O)cc1
IC50 [13]: > 25 µM (inactive)

COc1cc2c(cc1NC(=O)CSc1ccc(C)cc1)oc1ccccc12
EC50 [14]: 1.15 µM (active)
CC50 [15]: 28.4 µM (active)

Cn1c(SCc2cccc3ccccc23)nnc1-c1ccco1
CC50 [15]: > 50 µM (active)
IC50 [16]: 46.5 µM (active)

CCCCC(=O)NNC(=S)NC(=O)C(c1ccccc1)c1ccccc1
EC50 [17]: 25.1 µM (active)
EC50 [18]: 2.15 µM (active)
EC50 [19]: > 150 µM (not active)
EC50 [20]: 19.6 µM (inconclusive)
EC50 [21]: 2.66 µM (active)
EC50 [22]: 0.788 µM (active)
EC50 [23]: > 100 µM (active)

CN(C)C(=O)c1ccc(-c2nc(N(C)C)c3ccccc3n2)cc1
AC50 [24]: 1.58 µM (inconclusive)
AC50 [1]: 12.6 µM (inconclusive)

Cc1ccc2c(C)c(C(=O)N3CCN(c4ccncc4)CC3)oc2c1C
CC50 [15]: 46.9 µM (active)
IC50 [16]: 23.9 µM (active)

Cc1cc(NC(=O)CSc2nc3ccsc3c(=O)n2NC(=O)c2ccccc2)no1
IC50 [5]: 23.7 µM (active)

c1ccc(-c2oc3ncnc(NCCCN4CCOCC4)c3c2-c2ccccc2)cc1
EC50 [8]: > 79.4 µM (not active)
EC50 [9]: > 79.4 µM (not active)
EC50 [12]: > 79.4 µM (not active)

COc1ccc(/C=C/N(CCc2ccc(OC)c(OC)c2)C(=O)C(F)(F)F)cc1
AC50 [1]: 7.94 µM (inconclusive)
AC50 [2]: 3.16 µM (inconclusive)

COc1ccc(C(CN=C(S)NCc2ccccc2)N2CCCC2)cc1 (stereo not given)
IC50 [16]: 24.2 µM (active)

COCc1nc(-c2cc(OC)c(OC)c(OC)c2)no1
EC50 [14]: > 32 µM (inactive)

COc1ccc(C2=NN(c3nc(-c4ccc(CNC(C)=O)cc4)cs3)C(c3ccco3)C2)cc1 (stereo not given)
EC50 [14]: 1.04 µM (active)

C/C=C/c1ccc(OCCOc2cc(C=O)ccc2OC)c(OC)c1
IC50 [5]: 88.9 µM (active)
